Activity calls are given as the source filed them.
Assays:
Staphylococcus aureus [1] = test: Bactericidal activity against multi-drug resistant Staphylococcus aureus assessed as eradication of bacterial growth at 2 times MIC measured after 6 hrs by time-kill kinetic assay relative to control; type: functional
Staphylococcus aureus [2] = test: Antibiofilm activity in methicillin-resistant Staphylococcus aureus assessed as eradication of formed biofilm by measuring reduction in viable bacterial count measured after 12 hrs by confocal microscopy based analysis; type: functional, organism-based
[3] = Half life of the compound in 25% plasma; type: ADME, cell-free
Escherichia coli [4] = test: Antibiofilm activity in […] assessed as eradication of formed biofilm by measuring reduction in viable bacterial count measured after 12 hrs by confocal microscopy based analysis; type: functional, organism-based
[5] = tested on: Staphylococcus epidermidis; test: Antimicrobial activity against multi-drug resistant Staphylococcus epidermidis assessed as reduction in bacterial growth by broth dilution method; type: functional
Klebsiella pneumoniae = test: Antimicrobial activity against multi-drug resistant Klebsiella pneumoniae assessed as reduction in bacterial growth by broth dilution method; type: functional
Cell membrane [6] = test: Disruption of cell membrane in multi-drug resistant Escherichia coli assessed as appearance of wrinkled cell surface at 2 times MIC measured for 120 mins by transmission electron microscopy analysis; type: subcellular
Cell membrane [7] = test: Disruption of cell membrane in multi-drug resistant Staphylococcus aureus assessed as appearance of ruptured cell surface at 2 times MIC measured for 120 mins by transmission electron microscopy analysis; type: subcellular
Escherichia coli [8] = test: Antimicrobial activity against multi-drug resistant Escherichia coli assessed as reduction in bacterial growth at 2 times MIC measured after 1 hrs in presence of trypsin by microplate reader based analysis; type: functional, organism-based
Escherichia coli [9] = test: Antimicrobial activity against multi-drug resistant Escherichia coli assessed as reduction in bacterial growth by broth dilution method; type: functional
Staphylococcus aureus [10] = test: Antimicrobial activity against multi-drug resistant Staphylococcus aureus assessed as reduction in bacterial growth at 2 times MIC measured after 1 hrs in presence of trypsin by microplate reader based analysis; type: functional, organism-based
Staphylococcus aureus [11] = test: Antimicrobial activity against Staphylococcus aureus ATCC 25923 assessed as reduction in bacterial growth by broth dilution method; type: functional
Escherichia coli [12] = test: Antimicrobial activity against multi-drug resistant Escherichia coli assessed as fold increase in MIC in presence of KCl; type: functional
Cell membrane [13] = test: Induction of cytoplasmic membrane depolarization in multi-drug resistant Staphylococcus aureus at 1 to 4 times MIC measured within 1 min by DiSC3-5 fluorescent dye based analysis
Staphylococcus aureus [14] = test: Antimicrobial activity against multi-drug resistant Staphylococcus aureus assessed as reduction in bacterial growth at 2 times MIC measured after 1 hrs in presence of chymotrypsin by microplate reader based analysis; type: functional, organism-based
Escherichia coli [15] = test: Bactericidal activity against multi-drug resistant Escherichia coli assessed as eradication of bacterial growth at 2 times MIC measured after 6 hrs by time-kill kinetic assay relative to control; type: functional
[16] = Hemolytic activity in human Red blood cell assessed as hemolysis incubated for 1 hrs by microplate reader based analysis; type: toxicity; conditions: erythrocyte
Cell membrane [17] = test: Disruption of cell membrane in multi-drug resistant Staphylococcus aureus assessed as appearance of wrinkled cell surface at 2 times MIC measured for 120 mins by transmission electron microscopy analysis; type: subcellular
Escherichia coli [18] = test: Antimicrobial activity against multi-drug resistant Escherichia coli assessed as fold increase in MIC in presence of NaCl; type: functional
Cell membrane [19] = test: Disruption of cell membrane in multi-drug resistant Escherichia coli assessed as appearance of ruptured cell surface at 2 times MIC measured for 120 mins by transmission electron microscopy analysis; type: subcellular
Escherichia coli [20] = test: Antibiofilm activity against multi-drug resistant Escherichia coli measured after 24 hrs by crystal violet staining based analysis; type: functional, organism-based
Escherichia coli [21] = test: Antibiofilm activity against multi-drug resistant Escherichia coli at 0.5 times MIC measured after 24 hrs by crystal violet staining based analysis; type: functional, organism-based
Escherichia coli [22] = test: Bactericidal activity against multi-drug resistant Escherichia coli assessed as eradication of bacterial growth at 2 times MIC by time-kill kinetic assay; type: functional, organism-based; conditions: time 120-720 min
Escherichia coli [23] = test: Antimicrobial activity against multi-drug resistant Escherichia coli assessed as fold increase in MIC in presence of FeCl3; type: functional
Escherichia coli [24] = test: Antibiofilm activity in […] assessed as eradication of formed biofilm at 1 to 4 times MIC measured after 12 hrs by confocal microscopy based analysis; type: functional, organism-based
Escherichia coli [25] = test: Antimicrobial activity against multi-drug resistant Escherichia coli assessed as reduction in bacterial growth at 2 times MIC measured after 1 hrs in presence of chymotrypsin by microplate reader based analysis; type: functional, organism-based
Escherichia coli [26] = test: Antimicrobial activity against Escherichia coli ATCC 25922 assessed as reduction in bacterial growth by broth dilution method; type: functional
Enterococcus faecalis = test: Antimicrobial activity against multi-drug resistant Enterococcus faecalis assessed as reduction in bacterial growth by broth dilution method; type: functional
Cell membrane [27] = test: Induction of cytoplasmic membrane depolarization in multi-drug resistant Escherichia coli at 1 to 4 times MIC measured within 1 min by DiSC3-5 fluorescent dye based analysis
Cell membrane [28] = test: Induction of outer membrane permeabilization in multi-drug resistant Escherichia coli assessed as NPN uptake at 1 to 4 times MIC measured within 1 min by fluorescence based analysis; type: subcellular
Staphylococcus aureus [29] = test: Antibacterial activity against Staphylococcus aureus ATCC 25923 at sub-inhibitory concentration measured after 15 passages for 18 hrs; type: functional; parameters: scale not given: the % may be the effect or the level left
Staphylococcus aureus [30] = test: Antibiofilm activity in methicillin-resistant Staphylococcus aureus assessed as eradication of formed biofilm at 1 to 4 times MIC measured after 12 hrs by confocal microscopy based analysis; type: functional, organism-based
Staphylococcus aureus [31] = test: Antibiofilm activity against multi-drug resistant Staphylococcus aureus measured after 24 hrs by crystal violet staining based analysis; type: functional, organism-based
Staphylococcus aureus [32] = test: Antimicrobial activity against multi-drug resistant Staphylococcus aureus assessed as reduction in bacterial growth measured after 1 to 6 hrs in 25% plasma; type: functional, organism-based; conditions: time 1-6 hrs
Staphylococcus aureus [33] = test: Bactericidal activity against multi-drug resistant Staphylococcus aureus assessed as eradication of bacterial growth at 2 times MIC by time-kill kinetic assay; type: functional, organism-based; conditions: time 120-720 min
Cell membrane [34] = test: Disruption of cell membrane in multi-drug resistant Staphylococcus aureus assessed as increase in red fluorescence intensity of PI at 2 times MIC measured for 2 hrs by fluorescence confocal microscopic imaging based analysis; type: subcellular
Escherichia coli [35] = test: Bactericidal activity against multi-drug resistant Escherichia coli at 1 times MIC preincubated with LPS for 1 hrs followed by bacterial addition and measured after 18 hrs by microplate reader based analysis; type: functional, organism-based; conditions: time 19.0 hrs
Staphylococcus aureus [36] = test: Antimicrobial activity against multi-drug resistant Staphylococcus aureus assessed as reduction in bacterial growth by broth dilution method; type: functional
Cell membrane [37] = test: Disruption of cell membrane in multi-drug resistant Escherichia coli assessed as increase in red fluorescence intensity of PI at 2 times MIC measured for 2 hrs by fluorescence confocal microscopic imaging based analysis; type: subcellular
Acinetobacter baumannii = test: Antimicrobial activity against multi-drug resistant Acinetobacter baumannii assessed as reduction in bacterial growth by broth dilution method; type: functional

CC(C)C[C@H](NC(=O)[C@H](Cc1ccccc1)NC(=O)[C@@H]1CCCN1C(=O)[C@H](Cc1c[nH]c2ccccc12)NC(=O)[C@H](Cc1c[nH]c2ccccc12)NC(=O)[C@H](Cc1c[nH]c2ccccc12)NC(=O)[C@@H]1CCCN1C(=O)[C@H](Cc1ccccc1)NC(=O)[C@H](CCCNC(=N)N)NC(=O)[C@H](CCCNC(=N)N)NC(=O)[C@@H](N)C(C)C)C(=O)N[C@@H](CCCNC(=N)N)C(=O)N[C@@H](CCCNC(=N)N)C(=O)O
inactive: Activity (Escherichia coli [8]) | Activity (Staphylococcus aureus [10]) | Activity (Staphylococcus aureus [14]) | Activity (Escherichia coli [21]) | Activity (Escherichia coli [25]) | Activity (Staphylococcus aureus [32]) | Activity (Escherichia coli [35])
4 µM: MIC [5] | MIC (Enterococcus faecalis)
100%: Activity (Staphylococcus aureus [1]) | Activity (Escherichia coli [15]) | Activity (Staphylococcus aureus [29])
active: Activity (Staphylococcus aureus [2]) Dose-dependent-effect | Activity (Escherichia coli [4]) Dose-dependent-effect | Activity (Cell membrane [6]) | Activity (Cell membrane [7]) | Activity (Cell membrane [13]) | Activity (Cell membrane [17]) | Activity (Cell membrane [19]) | Activity (Escherichia coli [20]) Dose-dependent-effect | Activity (Escherichia coli [22]) Time-dependent-effect | Activity (Escherichia coli [24]) | Activity (Cell membrane [27]) | Activity (Cell membrane [28]) | Activity (Staphylococcus aureus [30]) | Activity (Staphylococcus aureus [31]) Dose-dependent-effect | Activity (Staphylococcus aureus [33]) Time-dependent-effect | Activity (Cell membrane [34]) | Activity (Cell membrane [37])
8 µM: MIC (Staphylococcus aureus [11])
16 µM: MIC (Escherichia coli [9]) | MIC (Escherichia coli [26]) | MIC (Staphylococcus aureus [36])
33.13 µM: HC10 [16]
32 µM: MIC (Acinetobacter baumannii)
1.7 h: half-life [3]
2: fold change (FC) (Escherichia coli [12]) | fold change (FC) (Escherichia coli [18]) | fold change (FC) (Escherichia coli [23])
256 µM: MIC (Klebsiella pneumoniae)

Reference: ChEMBL document CHEMBL6134890, “Terminally Symmetric β-Turn Peptides for Multidrug-Resistant Bacterial Infections” (J Med Chem, 2025)
